In patent US20260234144A1 (TAY THERAPEUTICS LIMITED, priority 2023, published 2026):

Tests used:
[1] = test system: R223X stop codon in the mutated luciferase gene, ADXC8 luciferase reporter cell line; test: cells; assay type: cell-based; conditions: 24 h, ADXC8 cells, 24 hours; for Emax: read-out: Fold Over Control, maximum fold response relative to 200 μM G418; for EC (100% of 200 uM G418 response): read-out: pC100%, negative logarithm of the concentration giving the same response as 200 μM G418
[2] = test system: R213X mutation in the p53 gene, HDQ-P1 cells; test: Read-through of R213X mutation in HDQ-P1 cells: truncated and full-length p53 by automated capillary electrophoresis western analysis; assay type: cell-based; conditions: Homo sapiens; for EC (50% of 200 uM G418 response): pC50% NMD: production of truncated p53, concentration giving 50% of the response of 200 μM G418, 24 h; for EC (100% of 200 uM G418 response): pC100% RT: production of full-length p53, concentration giving the same response as 200 μM G418, 24 h

| SMILES | Emax [1] | EC (100% of 200 uM G418 response) [1] | EC (50% of 200 uM G418 response) [2] | EC (100% of 200 uM G418 response) [2] |
| --- | --- | --- | --- | --- |
| CNc1nc(N[C@H]2CN(C)C[C@@H]2O)nc2nc3c(c(C)c12)CCC3 [Example 232, (3S,4S)-1-methyl-4-((5-methyl-4-(methylamino)-7,8-dihydro-6H-cyclopenta[5,6]pyrido[2,3-d]pyrimidin-2-yl)amino)pyrrolidin-3-ol] | 100 to 3000% | 0.1 to 1 µM | 0.1 to 1 µM | 0.1 to 1 µM |
| Cc1c2c(nc3nc(NC4CCN(Cc5ccccc5)CC4)nc(N)c13)CCC2 [Example 229, N^2-(1-benzylpiperidin-4-yl)-5-methyl-7,8-dihydro-6H-cyclopenta[5,6]pyrido[2,3-d]pyrimidine-2,4-diamine] | 100 to 3000% | 0.01 to 0.1 µM | 0.1 to 1 µM | 0.1 to 1 µM |
